Broadly, the EC50 is the concentration that produces a half-maximal response.

The values below come from patent US12552767B2, “3-heteroaryl pyrrolidine and piperidine orexin receptor agonists” (Merck Sharp & Dohme LLC, priority 2020, dated 2026).

For the test, the target named is T1, human OX2R (Homo sapiens, UniProt O43614).
T1 construct: expressed in transfected cells; host or cells: CHO (Chinese hamster ovary) cells, grown under G418 selection
T1 sequence (O43614 1-444): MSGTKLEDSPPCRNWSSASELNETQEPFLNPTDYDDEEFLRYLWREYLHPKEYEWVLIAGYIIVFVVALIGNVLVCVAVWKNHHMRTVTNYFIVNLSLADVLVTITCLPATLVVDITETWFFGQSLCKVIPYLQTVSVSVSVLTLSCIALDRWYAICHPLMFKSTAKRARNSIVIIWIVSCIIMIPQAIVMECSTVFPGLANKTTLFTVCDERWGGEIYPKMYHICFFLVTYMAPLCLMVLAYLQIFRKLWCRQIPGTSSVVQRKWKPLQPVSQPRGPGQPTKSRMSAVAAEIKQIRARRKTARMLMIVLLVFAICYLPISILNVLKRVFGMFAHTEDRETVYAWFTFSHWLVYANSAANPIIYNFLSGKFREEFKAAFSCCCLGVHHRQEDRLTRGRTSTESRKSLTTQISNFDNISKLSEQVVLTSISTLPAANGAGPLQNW
Description: IP-One (IPOne) orexin receptor agonist assay in CHO cells expressing human OX2R. Conditions: for EC50: CHO cells expressing human OX2R, IP-One IP-1 detection, 2 hours incubation, four parameter logistic fit, read-out: OX2R Potency, EC50; for % of reference agonist maximal effect: human OX2R, percentage of sample raw value/mean max effect (reference compound at 1 uM with 100% activity). The format is cell-based. The method in brief:
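CHO cells stably expressing human OX2R were stimulated with compound (10-point ½-log dilutions) for 2 h at 37 °C. IP-1 accumulation was read by HTRF (IP-One, 665/620 nm). EC50 from a four-parameter fit; % effect relative to 1 μM reference agonist control.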

Take `CCC[C@](C)(F)C(=O)N1CCC[C@H](c2cc[nH]n2)[C@@H]1COC1CCC(C(C)C)CC1` (stereo partly drawn) [Example 89, (S)-2-fluoro-1-((CIS)-2-((((CIS)-4-isopropylcyclohexyl)oxy)methyl)-3-(1H-pyrazol-3-yl)piperidin-1-yl)-2-methylpentan-1-one]: the EC50 turned out to be 9.77 µM and the “% of reference agonist maximal effect” value is 55.8%.

For `CN1C[C@H](COC(=O)N2CCC[C@H](c3cc[nH]n3)[C@@H]2COC2CCC(c3ccccc3)CC2)OCC1=O` (stereo partly drawn) [Example 94, ((R)-4-methyl-5-oxomorpholin-2-yl)methyl (CIS)-2-((((CIS)-4-phenylcyclohexyl)oxy)methyl)-3-(1H-pyrazol-3-yl)piperidine-1-carboxylate], the EC50 is 6.64 µM and the “% of reference agonist maximal effect” value is given as 93.5%.

Take `CC[C@H](C)COC(=O)N1CCC[C@H](c2cc[nH]n2)[C@@H]1CO[C@H]1CC[C@@H](c2ccccc2)CC1` [Example 107, (S)-2-methylbutyl (CIS)-2-((((CIS)-4-phenylcyclohexyl)oxy)methyl)-3-(1H-pyrazol-3-yl)piperidine-1-carboxylate]: the EC50 was 5.09 µM and the “% of reference agonist maximal effect” value was determined as 52.4%.

Turning to `CC[C@@H](C)OC(=O)N1CCC[C@H](c2cc[nH]n2)[C@@H]1CO[C@H]1CC[C@@H](c2ccccc2)CC1` [Example 108, (R)-sec-butyl (CIS)-2-((((CIS)-4-phenylcyclohexyl)oxy)methyl)-3-(1H-pyrazol-3-yl)piperidine-1-carboxylate], the EC50 is 5.27 µM and the “% of reference agonist maximal effect” value is given as 60.7%.

On to `C#C[C@H](C)OC(=O)N1CCC[C@H](c2cc[nH]n2)[C@@H]1CO[C@H]1CC[C@@H](c2ccccc2)CC1` [Example 115, (S)-but-3-yn-2-yl (CIS)-2-((((CIS)-4-phenylcyclohexyl)oxy)methyl)-3-(1H-pyrazol-3-yl)piperidine-1-carboxylate], for which the concentration giving a half-maximal response (EC50) came to 7.47 µM and the “% of reference agonist maximal effect” value is given as 51.4%.

With `CC[C@H](C)OC(=O)N1CCC[C@H](c2cc[nH]n2)[C@@H]1CO[C@H]1CC[C@@H](c2ccccc2)CC1` [Example 116, (S)-sec-butyl (CIS)-2-((((CIS)-4-phenylcyclohexyl)oxy)methyl)-3-(1H-pyrazol-3-yl)piperidine-1-carboxylate], the EC50 amounted to 7.76 µM and the “% of reference agonist maximal effect” value came out at 56.1%.

For the compound `CO[C@@H](C)COC(=O)N1CCC[C@H](c2cc[nH]n2)[C@@H]1CO[C@H]1CC[C@@H](c2ccccc2)CC1` [Example 119, (S)-2-methoxypropyl (CIS)-2-((((CIS)-4-phenylcyclohexyl)oxy)methyl)-3-(1H-pyrazol-3-yl)piperidine-1-carboxylate], the EC50 amounted to 9.69 µM and the “% of reference agonist maximal effect” value stood at 50.6%.

As for `CC[C@@H](C)NC(=O)N1CCC[C@H](c2cc[nH]n2)[C@@H]1CO[C@H]1CC[C@@H](c2ccccc2)CC1` [Example 128, (CIS)-N-((R)-sec-butyl)-2-((((CIS)-4-phenylcyclohexyl)oxy)methyl)-3-(1H-pyrazol-3-yl)piperidine-1-carboxamide], the EC50 turned out to be 5.94 µM and the “% of reference agonist maximal effect” value turned out to be 69.6%.
